Data reported in ChEMBL document CHEMBL1201862, “PubChem BioAssay data set” (2004).
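Grown in 96-well plates, cells were treated for 48 hours with each compound at five concentrations. Insufficient inhibition: endpoint recorded as highest concentration tested. Here, GI50 denotes the concentration required for 50% inhibition of growth.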 Activity calls are given as the source filed them. No stated cut-off is given here; in the data, active = GI50 up to about 1.1 µM and inactive = higher.

What was measured:
Experiment in all cases: inhibition of tumour cell growth, NCI panel, 48 h
[1] = test system: SK-OV-3
[2] = test system: COLO 205
[3] = test system: HOP-62
[4] = test system: UACC-62
[5] = test system: U-251
[6] = test system: HOP-92
[7] = test system: NCI-H226
[8] = test system: NCI-H522
[9] = test system: A498
[10] = test system: OVCAR-3
[11] = test system: SNB-19
[12] = test system: SF-268
[13] = test system: TK-10
[14] = test system: UO-31
[15] = test system: SK-MEL-2
[16] = test system: MOLT-4
[17] = test system: OVCAR-4
[18] = test system: LOX IMVI
[19] = test system: MDA-N

| Compound | GI50 [1] | GI50 [2] | GI50 [3] | GI50 [4] | GI50 [5] | GI50 [6] | GI50 [7] | GI50 [8] | GI50 [9] | GI50 [10] | GI50 [11] | GI50 [12] | GI50 [13] | GI50 [14] | GI50 [15] | GI50 [16] | GI50 [17] | GI50 [18] | GI50 [19] |
| --- | --- | --- | --- | --- | --- | --- | --- | --- | --- | --- | --- | --- | --- | --- | --- | --- | --- | --- | --- |
| CNc1ncnc2c1cnn2Cc1cn(CCCCO)nn1 | > 100 µM (inactive) | > 100 µM (inactive) | > 100 µM (inactive) | > 100 µM (inactive) | > 100 µM (inactive) | > 100 µM (inactive) | > 100 µM (inactive) | > 100 µM (inactive) | > 100 µM (inactive) | > 100 µM (inactive) | > 100 µM (inactive) | > 100 µM (inactive) | > 100 µM (inactive) | > 100 µM (inactive) | > 100 µM (inactive) | > 100 µM (inactive) | > 100 µM (inactive) | > 100 µM (inactive) | > 100 µM (inactive) |
| COC(=O)c1c(C)cccc1/C=C1\Cc2ccc(C)c(C)c2C1=O |  |  | 41.7 µM (inactive) | 14.5 µM (inactive) | 48.9 µM (inactive) | 74.3 µM (inactive) | > 100 µM (inactive) | 78.9 µM (inactive) | 31 µM (inactive) | > 100 µM (inactive) | 52.5 µM (inactive) | 67.5 µM (inactive) | > 100 µM (inactive) | 28.8 µM (inactive) | > 100 µM (inactive) | 93.8 µM (inactive) | 22.3 µM (inactive) | > 100 µM (inactive) | > 100 µM (inactive) |
| O=C(/N=C1/NCC(CN2CCN(c3ccccc3)CC2)O1)Nc1ccccc1 (stereo not drawn) | > 100 µM (inactive) | > 100 µM (inactive) | > 100 µM (inactive) | > 100 µM (inactive) | > 100 µM (inactive) | > 100 µM (inactive) | > 100 µM (inactive) | > 100 µM (inactive) | > 100 µM (inactive) |  | > 100 µM (inactive) | > 100 µM (inactive) | > 100 µM (inactive) | > 100 µM (inactive) | > 100 µM (inactive) | 93.1 µM (inactive) | > 100 µM (inactive) | > 100 µM (inactive) | > 100 µM (inactive) |
| COc1ccc(C=O)cc1Oc1ccc(C[C@H]2c3c(cc(OC)c4c3Oc3cc5c(cc3O4)CCN(C)C5=O)CCN2C)cc1 | 6.73 µM (inactive) | 20.8 µM (inactive) | 8.32 µM (inactive) |  | 9.51 µM (inactive) | 7.14 µM (inactive) | 8.59 µM (inactive) | 9.44 µM (inactive) | 20.1 µM (inactive) | 8.43 µM (inactive) | 12 µM (inactive) | 10.3 µM (inactive) | 11.2 µM (inactive) | 7.93 µM (inactive) | 11.5 µM (inactive) | 9.95 µM (inactive) | 7.93 µM (inactive) | 9.29 µM (inactive) | 8.67 µM (inactive) |
| Cc1ccc(S(=O)(=O)OC2C(C3COC(C)(C)O3)OC3OC(C)(C)OC32)cc1 (stereo not drawn) |  |  | > 100 µM (inactive) | > 100 µM (inactive) | > 100 µM (inactive) | > 100 µM (inactive) | > 100 µM (inactive) | > 100 µM (inactive) | > 100 µM (inactive) | > 100 µM (inactive) | > 100 µM (inactive) | > 100 µM (inactive) | > 100 µM (inactive) | > 100 µM (inactive) | > 100 µM (inactive) | > 100 µM (inactive) | > 100 µM (inactive) | > 100 µM (inactive) | > 100 µM (inactive) |
| CC(=O)Oc1ccc2c3c1[C@@H]1O[C@@H]1c1cccc(c1-3)[C@@H]1O[C@H]21 | 3.44 µM (inactive) | 1.99 µM (inactive) | 2.01 µM (inactive) | 1.87 µM (inactive) | 2.12 µM (inactive) | 1.81 µM (inactive) | 18.2 µM (inactive) | 1.47 µM (inactive) | 2.19 µM (inactive) | 2 µM (inactive) | 3.01 µM (inactive) | 2.11 µM (inactive) | 2.08 µM (inactive) | 1.52 µM (inactive) | 2.37 µM (inactive) |  | 2.03 µM (inactive) | 0.962 µM (active) | 1.84 µM (inactive) |
| O=C1OC(c2ccco2)=N/C1=C\c1cccc([N+](=O)[O-])c1 | > 100 µM (inactive) | > 100 µM (inactive) | > 100 µM (inactive) | > 100 µM (inactive) | > 100 µM (inactive) | > 100 µM (inactive) | > 100 µM (inactive) | > 100 µM (inactive) | > 100 µM (inactive) | > 100 µM (inactive) | > 100 µM (inactive) | > 100 µM (inactive) | > 100 µM (inactive) |  | > 100 µM (inactive) | > 100 µM (inactive) | > 100 µM (inactive) | > 100 µM (inactive) | > 100 µM (inactive) |
| c1ccc2sc(SSSc3nc4ccccc4s3)nc2c1 | > 100 µM (inactive) | > 100 µM (inactive) | > 100 µM (inactive) | > 100 µM (inactive) | > 100 µM (inactive) | > 100 µM (inactive) | > 100 µM (inactive) | 23 µM (inactive) | > 100 µM (inactive) |  | > 100 µM (inactive) | > 100 µM (inactive) | > 100 µM (inactive) | > 100 µM (inactive) | > 100 µM (inactive) | 77.3 µM (inactive) | > 100 µM (inactive) | 19.1 µM (inactive) | > 100 µM (inactive) |
